One compound from ChEMBL document CHEMBL4007467, “Effects of 6-paradol, an unsaturated ketone from gingers, on cytochrome P450-mediated drug metabolism” (Bioorg Med Chem Lett, 2017) can be followed below.

Some results are limits rather than exact numbers.

Type in all cases: ADME
Series [1] deals with T1, CYP2A6 (Homo sapiens, UniProt P11509).
T1 sequence (P11509 whole entry): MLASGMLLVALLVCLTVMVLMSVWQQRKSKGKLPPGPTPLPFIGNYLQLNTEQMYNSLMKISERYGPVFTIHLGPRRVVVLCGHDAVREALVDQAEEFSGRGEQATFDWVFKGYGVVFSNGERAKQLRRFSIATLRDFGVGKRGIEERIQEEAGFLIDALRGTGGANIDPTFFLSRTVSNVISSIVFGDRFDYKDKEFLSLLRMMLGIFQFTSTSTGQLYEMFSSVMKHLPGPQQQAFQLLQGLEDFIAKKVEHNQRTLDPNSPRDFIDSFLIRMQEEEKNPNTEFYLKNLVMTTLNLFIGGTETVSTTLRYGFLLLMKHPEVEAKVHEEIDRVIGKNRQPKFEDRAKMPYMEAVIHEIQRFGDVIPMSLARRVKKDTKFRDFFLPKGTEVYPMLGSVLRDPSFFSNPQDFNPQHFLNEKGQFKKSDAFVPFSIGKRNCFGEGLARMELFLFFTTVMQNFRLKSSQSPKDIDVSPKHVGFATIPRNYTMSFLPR
As to the kind of experiment: Inhibition of CYP2A6 in human liver microsomes assessed as enzyme-mediated metabolite formation at 0.3 uM using coumarin as substrate preincubated for 20 mins followed by substrate addition measured after 30 mins in presence of NADPH by LC-MS/MS analysis relative to control. The arrangement: scale not given: the % may be the effect or the level left. To be noted: probe coumarin, read-out: Activity. In general terms: Liver microsomes are vesicles of endoplasmic reticulum, rich in cytochrome P450 enzymes.

In series [2] the target is T2, CYP2D6 (Homo sapiens, UniProt P10635). The series can be described thus: Inhibition of CYP2D6 in human liver microsomes assessed as enzyme-mediated metabolite formation at 30 uM using dextromethorphan as substrate preincubated for 20 mins followed by substrate addition measured after 30 mins in presence of NADPH by LC-MS/MS analysis relative to control. To be noted: probe dextromethorphan, read-out: Activity. The arrangement: scale not given: the % may be the effect or the level left.

Series [3] addresses T3, CYP2C19 (Homo sapiens, UniProt P33261). The series can be described thus: Inhibition of CYP2C19 in human liver microsomes assessed as enzyme-mediated metabolite formation at 1 uM using (S)-mephenytoin as substrate incubated for 5 mins followed by NADPH addition measured after 30 mins by LC-MS/MS analysis relative to control. The arrangement: scale not given: the % may be the effect or the level left. As to conditions: probe (S)-mephenytoin, read-out: Activity.

Series [4] deals with T4, CYP2B6 (Homo sapiens, UniProt P20813).
T4 sequence (P20813 whole entry): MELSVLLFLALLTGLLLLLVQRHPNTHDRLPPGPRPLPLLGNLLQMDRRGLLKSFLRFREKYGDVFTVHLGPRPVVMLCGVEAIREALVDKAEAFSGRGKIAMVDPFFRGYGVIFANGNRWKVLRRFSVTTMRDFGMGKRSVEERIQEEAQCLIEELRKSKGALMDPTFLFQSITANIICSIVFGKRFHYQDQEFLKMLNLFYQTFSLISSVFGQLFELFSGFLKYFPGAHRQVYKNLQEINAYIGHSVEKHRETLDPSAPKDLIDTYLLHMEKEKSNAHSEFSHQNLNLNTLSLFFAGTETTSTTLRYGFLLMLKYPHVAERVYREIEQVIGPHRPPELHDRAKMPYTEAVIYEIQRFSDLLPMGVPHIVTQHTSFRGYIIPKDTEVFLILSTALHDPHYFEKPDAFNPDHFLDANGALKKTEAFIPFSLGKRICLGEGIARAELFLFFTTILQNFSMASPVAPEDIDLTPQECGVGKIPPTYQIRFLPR
As to the kind of experiment: Inhibition of CYP2B6 in human liver microsomes assessed as enzyme-mediated metabolite formation at 30 uM using bupropion as substrate preincubated for 20 mins followed by substrate addition measured after 30 mins in presence of NADPH by LC-MS/MS analysis relative to control. To be noted: probe bupropion, read-out: Activity. More on the design: scale not given: the % may be the effect or the level left.

Series [5] addresses T3, CYP2C19. As to the kind of experiment: Inhibition of CYP2C19 in human liver microsomes assessed as enzyme-mediated metabolite formation at 3 uM using (S)-mephenytoin as substrate incubated for 5 mins followed by NADPH addition measured after 30 mins by LC-MS/MS analysis relative to control. As to conditions: probe (S)-mephenytoin, read-out: Activity. The arrangement: scale not given: the % may be the effect or the level left.

Series [6] concerns the target T5, CYP3A4 (Homo sapiens, UniProt P08684). The series can be described thus: Inhibition of CYP3A4 in human liver microsomes assessed as enzyme-mediated metabolite formation at 3 uM using testosterone as substrate incubated for 5 mins followed by NADPH addition measured after 30 mins by LC-MS/MS analysis relative to control. To be noted: probe testosterone, read-out: Activity. More on the design: scale not given: the % may be the effect or the level left.

The target in series [7] is Cytochrome P450 2D6 (Homo sapiens, UniProt P10635). The series can be described thus: Inhibition of CYP2D6 in human liver microsomes using dextromethorphan as substrate preincubated for 20 mins followed by substrate addition measured after 30 mins in presence of NADPH by LC-MS/MS analysis.
In series [8] the target is T6, CYP1A2 (Homo sapiens, UniProt P05177).
T6 sequence (P05177 whole entry): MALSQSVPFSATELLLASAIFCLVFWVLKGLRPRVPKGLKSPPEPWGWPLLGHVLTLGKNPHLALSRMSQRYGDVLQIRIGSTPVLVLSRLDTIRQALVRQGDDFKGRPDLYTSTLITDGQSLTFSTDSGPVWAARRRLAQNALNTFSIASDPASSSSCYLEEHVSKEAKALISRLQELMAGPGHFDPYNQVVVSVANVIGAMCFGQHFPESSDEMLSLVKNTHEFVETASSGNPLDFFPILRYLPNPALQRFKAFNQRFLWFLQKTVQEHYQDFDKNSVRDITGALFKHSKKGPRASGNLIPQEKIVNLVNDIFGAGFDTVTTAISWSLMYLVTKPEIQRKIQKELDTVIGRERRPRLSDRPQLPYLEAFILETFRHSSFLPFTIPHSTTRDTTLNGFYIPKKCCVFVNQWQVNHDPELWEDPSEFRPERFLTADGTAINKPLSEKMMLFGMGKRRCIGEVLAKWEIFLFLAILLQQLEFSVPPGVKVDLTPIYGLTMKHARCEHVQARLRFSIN
The series can be described thus: Inhibition of CYP1A2 in human liver microsomes assessed as enzyme-mediated metabolite formation at 1 uM using phenacetin as substrate incubated for 5 mins followed by NADPH addition measured after 30 mins by LC-MS/MS analysis relative to control. The arrangement: scale not given: the % may be the effect or the level left. To be noted: probe phenacetin, read-out: Activity.

In series [9] the target is T5, CYP3A4. The series can be described thus: Inhibition of CYP3A4 in human liver microsomes assessed as enzyme-mediated metabolite formation at 1 uM using testosterone as substrate incubated for 5 mins followed by NADPH addition measured after 30 mins by LC-MS/MS analysis relative to control. The arrangement: scale not given: the % may be the effect or the level left. To be noted: probe testosterone, read-out: Activity.

Series [10] has as its target T7, Cytochrome P450 1A2 (Homo sapiens, UniProt P05177).
T7 sequence (P05177 whole entry): T6 sequence (P05177 whole entry)
As to the kind of experiment: Inhibition of CYP1A2 in human liver microsomes assessed as enzyme-mediated metabolite formation using phenacetin as substrate incubated for 5 mins followed by NADPH addition measured after 30 mins by LC-MS/MS analysis.

Series [11] deals with T2, CYP2D6. The series can be described thus: Inhibition of CYP2D6 in human liver microsomes assessed as enzyme-mediated metabolite formation at 1 uM using dextromethorphan as substrate incubated for 5 mins followed by NADPH addition measured after 30 mins by LC-MS/MS analysis relative to control. The arrangement: scale not given: the % may be the effect or the level left. To be noted: probe dextromethorphan, read-out: Activity.

In series [12] the target is T1, CYP2A6. As to the kind of experiment: Inhibition of CYP2A6 in human liver microsomes assessed as enzyme-mediated metabolite formation at 0.1 uM using coumarin as substrate preincubated for 20 mins followed by substrate addition measured after 30 mins in presence of NADPH by LC-MS/MS analysis relative to control. More on the design: scale not given: the % may be the effect or the level left. To be noted: probe coumarin, read-out: Activity.

T2 sequence (P10635 whole entry): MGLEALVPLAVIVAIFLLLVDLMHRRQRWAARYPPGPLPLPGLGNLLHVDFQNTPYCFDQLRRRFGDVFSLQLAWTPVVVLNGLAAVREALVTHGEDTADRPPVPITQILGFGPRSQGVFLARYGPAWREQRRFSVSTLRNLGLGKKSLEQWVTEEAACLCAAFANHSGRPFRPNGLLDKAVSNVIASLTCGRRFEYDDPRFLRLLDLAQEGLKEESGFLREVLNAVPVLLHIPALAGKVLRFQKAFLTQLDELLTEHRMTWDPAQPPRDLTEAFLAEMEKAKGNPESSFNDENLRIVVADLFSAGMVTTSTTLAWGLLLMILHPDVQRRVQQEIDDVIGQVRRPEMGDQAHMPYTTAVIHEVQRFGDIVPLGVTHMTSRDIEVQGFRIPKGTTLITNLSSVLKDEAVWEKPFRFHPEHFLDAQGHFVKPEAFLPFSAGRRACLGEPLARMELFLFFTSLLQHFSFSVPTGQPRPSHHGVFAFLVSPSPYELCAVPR
T5 sequence (P08684 whole entry): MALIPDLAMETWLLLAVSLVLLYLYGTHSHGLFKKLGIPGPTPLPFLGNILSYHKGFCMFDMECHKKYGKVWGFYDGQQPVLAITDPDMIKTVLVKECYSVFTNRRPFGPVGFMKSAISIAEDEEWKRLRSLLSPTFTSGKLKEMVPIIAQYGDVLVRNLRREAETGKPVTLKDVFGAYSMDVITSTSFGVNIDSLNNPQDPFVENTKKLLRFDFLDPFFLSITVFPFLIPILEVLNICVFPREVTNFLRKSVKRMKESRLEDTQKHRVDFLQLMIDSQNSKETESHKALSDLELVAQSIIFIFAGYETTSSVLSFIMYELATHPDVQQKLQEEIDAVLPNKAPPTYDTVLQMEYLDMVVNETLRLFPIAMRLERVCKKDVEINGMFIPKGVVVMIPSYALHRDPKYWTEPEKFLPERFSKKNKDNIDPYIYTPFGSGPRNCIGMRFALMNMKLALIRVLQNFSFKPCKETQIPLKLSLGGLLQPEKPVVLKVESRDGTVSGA
T3 sequence (P33261 whole entry): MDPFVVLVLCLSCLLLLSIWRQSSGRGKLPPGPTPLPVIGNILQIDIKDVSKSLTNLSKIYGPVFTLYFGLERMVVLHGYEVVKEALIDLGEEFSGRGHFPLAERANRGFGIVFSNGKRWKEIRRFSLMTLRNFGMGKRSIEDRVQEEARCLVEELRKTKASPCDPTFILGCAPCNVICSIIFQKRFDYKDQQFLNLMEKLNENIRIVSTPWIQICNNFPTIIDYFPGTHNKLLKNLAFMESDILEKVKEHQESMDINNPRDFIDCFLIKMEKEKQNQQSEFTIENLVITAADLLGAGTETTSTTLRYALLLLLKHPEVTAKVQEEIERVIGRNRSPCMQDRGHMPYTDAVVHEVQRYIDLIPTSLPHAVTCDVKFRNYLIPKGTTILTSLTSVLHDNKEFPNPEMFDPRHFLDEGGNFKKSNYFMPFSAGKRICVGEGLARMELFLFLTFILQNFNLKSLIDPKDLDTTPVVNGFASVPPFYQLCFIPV
Chain of Cytochrome P450 2D6 (P10635 whole entry): as the sequence (P10635 whole entry) above

Broadly, the IC50 is the concentration that inhibits the measured activity by half. For the compound `CCCCCCCC(=O)CCc1ccc(O)c(OC)c1`, the activity at 0.5 h, 0.3 µM in [1] came out at 103%. Further, the figures for the activity at 0.5 h, 30 µM in series [2] and in series [4] were 80.1% and 45.5%, respectively. In addition, the activity at 0.5 h, 1 µM in [3] stood at 88.4%; in [8] it was 79.2%; in series [9], 65.6%; in [11], 75.9%. Further, the figures for the activity at 0.5 h, 3 µM in series [5] and in series [6] were 78.6% and 63.3%, respectively. In addition, the values for the 50% inhibitory concentration (IC50) in series [7] and in [10] were over 30 µM and 7.1 µM, respectively. In addition, in series [12], the activity at 0.5 h, 0.1 µM amounted to 96.5%.
